Reference: ChEMBL document CHEMBL1138300, “Tris-azaaromatic quaternary ammonium salts: Novel templates as antagonists at nicotinic receptors mediating nicotine-evoked dopamine release” (Bioorg Med Chem Lett, 2007)

Experiments:
[1] = target: Neuronal acetylcholine receptor; alpha4/beta2 (Rattus norvegicus) (UniProt P09483+P12390); assay: Displacement of [3H]NIC from alpha-4-beta-2 nAChR in rat brain membrane at 100 uM; assay type: cell membranes
[2] = target: Neuronal acetylcholine receptor subunit alpha-7 (Rattus norvegicus) (UniProt Q05941); assay: Displacement of [3H]MLA from alpha-7 nAChR in rat brain membrane at 100 uM; assay type: cell membranes
Chain of Neuronal acetylcholine receptor subunit alpha-7 (Rattus norvegicus) (Q05941 whole entry): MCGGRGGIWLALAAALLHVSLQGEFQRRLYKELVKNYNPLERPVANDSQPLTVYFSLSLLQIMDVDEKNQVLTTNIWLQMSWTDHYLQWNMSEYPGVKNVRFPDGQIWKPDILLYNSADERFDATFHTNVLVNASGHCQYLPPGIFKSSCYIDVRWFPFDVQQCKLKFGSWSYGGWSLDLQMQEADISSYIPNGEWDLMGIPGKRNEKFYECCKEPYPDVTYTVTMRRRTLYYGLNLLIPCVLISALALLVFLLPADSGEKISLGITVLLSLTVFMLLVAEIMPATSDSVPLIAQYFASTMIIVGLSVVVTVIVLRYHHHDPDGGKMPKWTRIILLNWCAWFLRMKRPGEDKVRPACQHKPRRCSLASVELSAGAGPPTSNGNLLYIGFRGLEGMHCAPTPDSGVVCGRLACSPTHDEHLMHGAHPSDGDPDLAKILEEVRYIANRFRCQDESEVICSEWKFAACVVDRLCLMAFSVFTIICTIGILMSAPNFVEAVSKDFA

[3] = Antagonist activity at nAChR in rat striatal slices assessed as inhibition of nicotine-evoked [3H]dopamine release at 100 uM; assay type: functional; details: for inhibition at 100 µM: Rattus norvegicus
[4] = Antagonist activity at nAChR in rat striatal slices assessed as inhibition of nicotine-evoked [3H]dopamine release; assay type: functional

Row | SMILES | inhibition [1] [%] | inhibition [2] [%] | inhibition at 100 µM [3] [%] | Imax [3] [%] | IC50 [4] [nM]
1 | Cc1cc[n+](CCCC#Cc2cc(C#CCCC[n+]3ccc(C)c(C)c3)cc(C#CCCC[n+]3ccc(C)c(C)c3)c2)cc1C | 4 | 1.8 | 18 |  | 
2 | Cc1ccc[n+](CCCCCCCCCCCC[n+]2cccc(C)c2)c1.[Br-].[Br-] |  |  |  | 68 | 2
3 | Cc1cc(C)c[n+](CCCC#Cc2cc(C#CCCC[n+]3cc(C)cc(C)c3)cc(C#CCCC[n+]3cc(C)cc(C)c3)c2)c1 | 8.9 | 0 | 27 |  | 
4 | c1ccc2c[n+](CCCCCc3cc(CCCCC[n+]4ccc5ccccc5c4)cc(CCCCC[n+]4ccc5ccccc5c4)c3)ccc2c1 | 8.4 | 2.5 | 28 |  | 
5 | Cc1ccc[n+](CCCCCc2cc(CCCCC[n+]3cccc(C)c3)cc(CCCCC[n+]3cccc(C)c3)c2)c1.[Br-].[Br-].[Br-] | 14 | 1.2 | 58 | 50 | 2
6 | Cc1cc[n+](CCCCCc2cc(CCCCC[n+]3ccc(C)cc3)cc(CCCCC[n+]3ccc(C)cc3)c2)cc1 | 6 | 0 | 37 |  | 
7 | CCCCCCCCCCCC[n+]1cccc(C)c1.[I-] |  |  |  | 62 | 30
8 | Cc1cc[n+](CCCC#Cc2cc(C#CCCC[n+]3ccc(C)cc3)cc(C#CCCC[n+]3ccc(C)cc3)c2)cc1 | 21 | 0 | 32 |  | 
9 | C(#Cc1cc(C#CCCC[n+]2cccc3ccccc32)cc(C#CCCC[n+]2cccc3ccccc32)c1)CCC[n+]1cccc2ccccc21 | 7 | 21 | 29 |  | 
10 | c1ccc2c(c1)ccc[n+]2CCCCCc1cc(CCCCC[n+]2cccc3ccccc32)cc(CCCCC[n+]2cccc3ccccc32)c1 | 5.7 | 6.8 | 8 |  | 
11 | Cc1cccc[n+]1CCCC#Cc1cc(C#CCCC[n+]2ccccc2C)cc(C#CCCC[n+]2ccccc2C)c1.[Br-].[Br-].[Br-] | 4.5 | 0 | 51 | 50 | 4
12 | C(#Cc1cc(C#CCCC[n+]2ccc3ccccc3c2)cc(C#CCCC[n+]2ccc3ccccc3c2)c1)CCC[n+]1ccc2ccccc2c1 | 9.2 | 4.5 | 44 |  | 
13 | CN1CCC[C@H]1c1ccc[n+](CCCCCc2cc(CCCCC[n+]3cccc([C@@H]4CCCN4C)c3)cc(CCCCC[n+]3cccc([C@@H]4CCCN4C)c3)c2)c1 | 81 | 7.9 | 26 |  | 
14 | Cc1cccc[n+]1CCCCCc1cc(CCCCC[n+]2ccccc2C)cc(CCCCC[n+]2ccccc2C)c1 | 8.6 | 0 | 27 |  | 
15 | CCCCc1ccc[n+](CCCC#Cc2cc(C#CCCC[n+]3cccc(CCCC)c3)cc(C#CCCC[n+]3cccc(CCCC)c3)c2)c1 | 6.8 | 30 | 28 |  | 
16 | CN1CCC[C@H]1c1ccc[n+](CCCC#Cc2cc(C#CCCC[n+]3cccc([C@@H]4CCCN4C)c3)cc(C#CCCC[n+]3cccc([C@@H]4CCCN4C)c3)c2)c1.[Br-].[Br-].[Br-] | 44 | 4.2 | 59 | 50 | 
17 | Cc1cc(C)c[n+](CCCCCc2cc(CCCCC[n+]3cc(C)cc(C)c3)cc(CCCCC[n+]3cc(C)cc(C)c3)c2)c1 | 11 | 6.5 | 39 |  | 
18 | Cc1cc[n+](CCCCCc2cc(CCCCC[n+]3ccc(C)c(C)c3)cc(CCCCC[n+]3ccc(C)c(C)c3)c2)cc1C | 9.3 | 0.2 | 50 |  | 
19 | Cc1ccc[n+](CCCC#Cc2cc(C#CCCC[n+]3cccc(C)c3)cc(C#CCCC[n+]3cccc(C)c3)c2)c1.[Br-].[Br-].[Br-] | 10 | 0 | 40 | 67 | 0.2
20 | CCCCc1ccc[n+](CCCCCc2cc(CCCCC[n+]3cccc(CCCC)c3)cc(CCCCC[n+]3cccc(CCCC)c3)c2)c1 | 6.2 | 4.4 | 68 |  | 
21 | C(#Cc1cc(C#CCCC[n+]2cccc(-c3ccccc3)c2)cc(C#CCCC[n+]2cccc(-c3ccccc3)c2)c1)CCC[n+]1cccc(-c2ccccc2)c1 | 15 | 39 | 29 |  | 
22 | c1ccc(-c2ccc[n+](CCCCCc3cc(CCCCC[n+]4cccc(-c5ccccc5)c4)cc(CCCCC[n+]4cccc(-c5ccccc5)c4)c3)c2)cc1 | 14 | 19 | 6 |  | 
